Tests used:
KOR [1] = molecular target: T1, KOR (Homo sapiens, UniProt P41145); test: [35S]GTPγS binding functional agonist assay on membranes of CHO cells expressing hKOR (reference agonist U69593); type: biochemical; set-up: expressed in transfected cells; host or cells: CHO cells, stably transfected; crude membrane fractions; details: test compound at 10 micromolar; N=4; reference agonist = 100%; CHO-cell line expressing hKOR
Experimental: The compounds prepared herein were tested for bioactivity with opioid receptors. Agonist assays: Data represent the percent efficacy (relative to cognate agonist) of the test compound at 10 micromolar. The response to a saturating concentration of a reference antagonist or to vehicle (usually none or negligible) is set to 0%. […] The response inhibition elicited by a saturating concentration of reference antagonist is set to 100%; the response inhibition (usually none or negligible) elicited by vehicle is set to 0%. The following tables provide data related to the bioactivity for opioid receptors of the compounds described herein.
Table 6 provides data that represent the average percent efficacy (N=4; relative to cognate agonist) of the test compound at 10 micromolar concentration. The response to a saturating concentration of cognate/reference agonist is set to 100%; the response to a saturating concentration of a reference antagonist or to vehicle (usually none or negligible) is set to 0%. All functional assays are performed on stably transfected CHO-cell lines expressing hKOR, hMOR or hDOR.
(§1) Serial dilutions of the test and reference compounds are made in binding buffer at 2× assay concentration (final assay concentrations ranging from 0.1 nM to 10 μM). Crude membrane fractions (1.8 to 3.5 cm2/well) (prepared from 10-cm plates by harvesting PBS-rinsed monolayers, resuspending and lysing in chilled, hypotonic 50 mM Tris-HCl, pH 7.4, centrifuging at 20,000×g, decanting the supernatant and storing at −80 degrees centigrade; typically, one 10-cm plate provides sufficient material for 24 wells) are resuspended in 1.2 ml of assay buffer containing 20 μM GDP, wheat germ agglutinin (WGA)-coated scintillation proximity beads (2.4 mg), and [35S]GTPγS (300 pM final). The suspension is then added (50 μl/well) to 50 μl of the 2× test or reference compounds (each concentration assayed in triplicate) in flexible transparent PET 96-well plates. The reaction plate is sealed and incubated for 90 min at room temperature, then centrifuged for 5 min at 216×g, and finally loaded into a Wallac MicroBeta TriLux counter. Non-specific [35S]GTPγS binding is assessed at the maximum concentration of reference agonist in the presence of 10 μM antagonist. The background signal is measured at 10 μM reference agonist in the presence of 10 μM unlabeled GTPγS. Raw data (dpm) representing total [35S]GTPγS binding (i.e., specific+non-specific binding) are calculated as a percentage of the maximum response by the reference agonist (in this case U69593).
as §1, with “GTPγS.” for “GTPγS. Raw data (dpm) representing total [35S]GTPγS binding (i.e., specific+non-specific binding) are calculated as a percentage of the maximum response by the reference agonist (in this case U69593).”

KOR [2] = molecular target: T1, KOR; test: Opioid secondary binding, KOR (Tables 4, 5, 8, 9); details: Opioid secondary binding activity for Formula 10 analogs; read-out: KOR, Ki
DOR = DOR (Homo sapiens, UniProt P41143); test: Opioid secondary binding, DOR (Table 4); details: Opioid secondary binding activity for Formula 10 analogs
Chain of DOR (P41143 whole entry): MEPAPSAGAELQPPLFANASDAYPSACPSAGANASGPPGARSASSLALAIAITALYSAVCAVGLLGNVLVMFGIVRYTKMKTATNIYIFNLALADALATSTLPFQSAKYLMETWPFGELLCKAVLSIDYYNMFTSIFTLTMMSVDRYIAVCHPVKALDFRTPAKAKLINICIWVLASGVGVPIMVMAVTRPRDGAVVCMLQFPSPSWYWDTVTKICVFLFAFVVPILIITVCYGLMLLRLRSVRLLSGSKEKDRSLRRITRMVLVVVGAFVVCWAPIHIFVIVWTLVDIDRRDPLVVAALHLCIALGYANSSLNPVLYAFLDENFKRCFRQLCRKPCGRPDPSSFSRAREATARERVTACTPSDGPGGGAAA

T1 sequence (P41145 whole entry): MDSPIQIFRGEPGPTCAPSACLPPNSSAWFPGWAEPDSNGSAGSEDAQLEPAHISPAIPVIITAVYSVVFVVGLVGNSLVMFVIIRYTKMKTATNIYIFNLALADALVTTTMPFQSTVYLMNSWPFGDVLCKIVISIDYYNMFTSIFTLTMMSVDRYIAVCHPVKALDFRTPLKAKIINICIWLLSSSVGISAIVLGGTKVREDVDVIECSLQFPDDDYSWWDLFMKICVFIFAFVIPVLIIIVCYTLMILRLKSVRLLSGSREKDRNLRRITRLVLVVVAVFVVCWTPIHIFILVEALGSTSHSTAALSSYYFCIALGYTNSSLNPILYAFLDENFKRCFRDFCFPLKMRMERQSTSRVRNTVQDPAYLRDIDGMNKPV

Row | SMILES | KOR agonist (average percent efficacy relative to cognate agonist) (KOR [1]) | Ki (KOR [2]) | Ki (DOR)
1 | O=C([C@@H]1CC=C[C@@H]2CCN(C3CC3)C(=O)[C@@H]21)N1CCOCC1 (racemic) [compound 8909] | 7.8% | – | –
2 | O=C([C@@H]1CC=C[C@@H]2CCN(C3CCCCC3)C(=O)[C@@H]21)N1CCOCC1 (racemic) [compound 8910] | 42.7% | 2950 nM | –
3 | CCCCN1CC[C@H]2C=CC[C@@H](C(=O)N3CCOCC3)[C@H]2C1=O (racemic) [compound 8911] | 8.3% | – | –
4 | O=C([C@@H]1CC=C[C@@H]2CCN(C3CC3)C(=O)[C@@H]21)N1CCN(c2ccccc2)CC1 (racemic) [compound 8913] | 27.5% | 3190 nM | –
5 | CCCCN1CC[C@H]2C=CC[C@@H](C(=O)N3CCN(c4ccccc4)CC3)[C@H]2C1=O (racemic) [compound 8914] | 9.9% | – | –
6 | O=C(NCCc1ccccc1)[C@@H]1CC=C[C@@H]2CCN(C3CC3)C(=O)[C@@H]21 (racemic) [compound 8917] | 6.6% | – | –
7 | CCCCN1CC[C@H]2C=CC[C@@H](C(=O)NCCc3ccccc3)[C@H]2C1=O (racemic) [compound 8918] | 12.6% | 3270 nM | –
8 | CCCCNC(=O)[C@@H]1CC=C[C@@H]2CCN(CCCC)C(=O)[C@@H]21 (racemic) [compound 8919] | 40.3% | 2810 nM | –
9 | O=C(NC1CCCCC1)[C@@H]1CC=C[C@@H]2CCN(Cc3ccccc3)C(=O)[C@@H]21 (racemic) [compound 8920, 2-Benzyl-N-cyclohexyl-1-oxo-1,2,3,4,4a,7,8,8a-octahydroisoquinoline-8-carboxamide] | 94.2% | 298 nM | –
10 | O=C(NC1CCCCC1)[C@@H]1CC=C[C@@H]2CCN(C3CC3)C(=O)[C@@H]21 (racemic) [compound 8921] | 4.1% | – | –
11 | O=C(NC1CCCCC1)[C@@H]1CC=C[C@@H]2CCN(C3CCCCC3)C(=O)[C@@H]21 (racemic) [compound 8922] | 8% | 167 nM | –
12 | CCCCN1CC[C@H]2C=CC[C@@H](C(=O)NC3CCCCC3)[C@H]2C1=O (racemic) [compound 8923] | 67.6% | 1030 nM | –
13 | COc1ccc(CNC(=O)[C@@H]2CC=C[C@@H]3CCN(Cc4ccccc4)C(=O)[C@@H]32)cc1 (racemic) [compound 8924] | 18.8% | 3730 nM | –
14 | COc1ccc(CNC(=O)[C@@H]2CC=C[C@@H]3CCN(C4CC4)C(=O)[C@@H]32)cc1 (racemic) [compound 8925] | 5.4% | – | –
15 | COc1ccc(CNC(=O)[C@@H]2CC=C[C@@H]3CCN(C4CCCCC4)C(=O)[C@@H]32)cc1 (racemic) [compound 8926] | 29% | 2690 nM | –
16 | CCCCN1CC[C@H]2C=CC[C@@H](C(=O)NCc3ccc(OC)cc3)[C@H]2C1=O (racemic) [compound 8927] | 8.7% | – | –
17 | COc1ccc(CNC(=O)[C@@H]2CC=C[C@@H]3CCN(Cc4ccc(OC)c(OC)c4)C(=O)[C@@H]32)cc1 (racemic) [compound 8929] | 3.6% | – | –
18 | O=C(NCc1cccnc1)[C@@H]1CC=C[C@@H]2CCN(C3CC3)C(=O)[C@@H]21 (racemic) [compound 8930] | 4% | – | –

Row | SMILES | KOR agonist (average percent efficacy relative to cognate agonist) (KOR [1]) | Ki (KOR [2]) | Ki (DOR)
19 | O=C(NCc1cccnc1)[C@@H]1CC=C[C@@H]2CCN(C3CCCCC3)C(=O)[C@@H]21 (racemic) [compound 8931] | 67.7% | 552 nM | –
20 | O=C(NCc1cccnc1)[C@@H]1CC=C[C@@H]2CCN(Cc3ccc(Cl)c(Cl)c3)C(=O)[C@@H]21 (racemic) [compound 8932] | 74.6% | 693 nM | –
21 | O=C(Nc1ccccc1)[C@@H]1CC=C[C@@H]2CCN(C3CC3)C(=O)[C@@H]21 (racemic) [compound 8938] | 21.8% | 1400 nM | –
22 | COc1ccc(NC(=O)[C@@H]2CC=C[C@@H]3CCN(Cc4ccccc4)C(=O)[C@@H]32)cc1 (racemic) [compound 8943] | 72.9% | 883 nM | –
23 | COc1ccc(NC(=O)[C@@H]2CC=C[C@@H]3CCN(C4CC4)C(=O)[C@@H]32)cc1 (racemic) [compound 8944] | 1% | – | –
24 | CCCCN1CC[C@H]2C=CC[C@@H](C(=O)Nc3ccc(OC)cc3)[C@H]2C1=O (racemic) [compound 8946] | 23.5% | 5040 nM | –
25 | O=C(Nc1ccc(Cl)cc1Cl)[C@@H]1CC=C[C@@H]2CCN(C3CC3)C(=O)[C@@H]21 (racemic) [compound 8948] | 29.6% | – | –
26 | O=C(Nc1ccc(Cl)cc1Cl)[C@@H]1CC=C[C@@H]2CCN(C3CCCCC3)C(=O)[C@@H]21 (racemic) [compound 8949] | 67.9% | 506 nM | –
27 | CCCCN1CC[C@H]2C=CC[C@@H](C(=O)Nc3ccc(Cl)cc3Cl)[C@H]2C1=O (racemic) [compound 8950] | 72.9% | 1140 nM | –
28 | O=C(Nc1ccc(Cl)cc1Cl)[C@@H]1CC=C[C@@H]2CCN(Cc3ccc(Cl)c(Cl)c3)C(=O)[C@@H]21 (racemic) [compound 8951] | 23.2% | 2440 nM | –
29 | O=C(Nc1ccc(Cl)c(C(F)(F)F)c1)[C@@H]1CC=C[C@@H]2CCN(C3CC3)C(=O)[C@@H]21 (racemic) [compound 8954] | 66.4% | 493 nM | –
30 | O=C(Nc1ccc(Cl)c(C(F)(F)F)c1)[C@@H]1CC=C[C@@H]2CCN(Cc3ccc(Cl)c(Cl)c3)C(=O)[C@@H]21 (racemic) [compound 8957] | 33.1% | – | –
31 | O=C(NCc1ccc(Cl)c(Cl)c1)[C@@H]1CC=C[C@@H]2CCN(Cc3ccccc3)C(=O)[C@@H]21 (racemic) [compound 12148] | – | 2780 nM | 644 nM
32 | O=C(Nc1ccc(Cl)c(C(F)(F)F)c1)[C@@H]1CC=C[C@@H]2CCN(Cc3cccc(Br)c3)C(=O)[C@@H]21 (racemic) [compound 12170] | – | 1460 nM | 1720 nM
33 | O=C(Nc1ccc(Br)c(C(F)(F)F)c1)[C@@H]1CC=C[C@@H]2CCN(Cc3cccc(Br)c3)C(=O)[C@@H]21 (racemic) [compound 12171] | – | 694 nM | 503 nM
34 | Cc1ccc(NC(=O)[C@@H]2CC=C[C@@H]3CCN(Cc4ccccc4)C(=O)[C@@H]32)cc1C(F)(F)F (racemic) [compound 13475] | – | 1160 nM | 39 nM
35 | O=C(Nc1ccc(Br)c(C(F)(F)F)c1)[C@@H]1CC=C[C@@H]2CCN(Cc3ccccc3F)C(=O)[C@@H]21 (racemic) [compound 13478] | – | 299 nM | 22 nM
36 | COc1ccccc1CN1CC[C@H]2C=CC[C@@H](C(=O)Nc3ccc(C)c(C(F)(F)F)c3)[C@H]2C1=O (racemic) [compound 13481] | – | 1900 nM | 1340 nM

— patent publication US8735391B2, “Synthesis of functionalized octahydro-isoquinolin-1-one-8-carboxamides, octahydro-isoquinolin-1-one-8-carboxylic esters and analogs, and therapeutic methods” (University of Kansas, priority 2008, dated 2014)
